Results published in publication PMC6661766, “Antimicrobial, antioxidant and cytotoxic evaluation of diazenyl chalcones along with insights to mechanism of interaction by molecular docking studies” (BMC Chemistry, 2019).
In brackets after ≈: the same amount, converted by molar mass. Like-named read-outs stand apart in the source and are kept apart here.

Assays:
S. typhi = assay: Antimicrobial serial tube dilution, MIC and MBC; type: cell-based, Salmonella typhi MTCC 3216; conditions: Salmonella enterica, TYPHI; for MIC: 24 h, read-out: S. typhi MIC; for MBC: read-out: S. typhi MBC
Description: (§1) The synthesized diazenyl chalcones (C18 to C27) and controls (dyes A and E, and chalcone) were assessed for their antimicrobial activity by estimation of MIC and MBC/MFC values. […] The stock solutions of the test compounds and standard drugs having a concentration of 1000 µg ml^−1 were prepared by dissolving the used compounds in DMSO. The nutrient broth/Sabouraud dextrose broth was used for the serial dilution of the test compounds and referenced drugs for bacterial and fungal cultures, respectively. […] The size of the final inoculum in each test tube was taken as 5 × 10^5 CFU ml^−1. The incubation of the test and standard compounds of varying concentrations was done for 24 h at 37 ± 2 °C (bacterial culture) and for 48 h at 37 ± 2 °C (C. albicans) and for 7 d at 25 ± 2 °C (A. fumigatus). The diazenyl chalcones (C18–C27), were further evaluated for their bactericidal/fungicidal activity by estimation of MBC/MFC values. […] For proper mixing of culture media, the plates were shaken gently followed by incubation at the predefined temperature and time as stated earlier, followed by the visual inspection of the plates for signs of microbial growth.

tested bacterial strains = assay: Antimicrobial serial tube dilution, ranges over several bacterial strains; type: cell-based
Description: as §1

[1] = test system: A549 human lung cancer cell line; assay: MTT cytotoxicity assay, A549; type: cell-based; conditions: Homo sapiens, A549; MTT, 48 h
Description: (§2) The cell lines employed in the investigation were purchased from the National Centre for Cell Sciences (NCCS), Pune, India. The cell lines were cultured in DMEM fortified with 10% FBS, L-glutamine, sodium bicarbonate, and solution of antibiotics (streptomycin 100 μg ml^−1 + penicillin-100 U ml^−1). The culture of cell lines was stored under 5% CO2 incubation at 37 °C.
(§3) The compounds showing maximum activity (antimicrobial and antioxidant potential) were screened for cytotoxicity against A549 and HEK cell lines using MTT assay. Initially, 96-well microculture plate was seeded with 1 × 10^4 cells in 100 µl/well DMEM/MEM, supplemented with 10% FBS followed by incubation at a temperature of 37 °C for a period of 24 h under 5% CO2 atmosphere. After that, the test compounds and camptothecin were added to the cells to achieve a concentration of 10, 25, 50 and 100 µg. MTT reagent (10 µl) of concentration of 5 mg ml^−1 added to all the wells after the duration of 48 h. The plate was incubated further for 4 h followed by careful removal of supernatant from each well. To dissolve the formazan crystals, 100 µl of DMSO was added, and the ELISA reader was used to check the absorbance at 570 nm wavelength. In order to calculate the IC50 concentration, the following equation, i.e. A = Bx + C, was used. In this case, A = 50, while the values B and C values were obtained from the survival curve plot. This study was carried out in duplicate.

[2] = DPPH scavenging antioxidant assay
Description: The derivatives (C18–C27) were assessed for their antioxidant potential in the presence of the stable free radical DPPH using ascorbic acid as the standard compound [36, 37]. […] The total volume of 200 µl was used in each well for each concentration of the test and standard drug containing 0.004 µg DPPH. The assay was performed in triplicate at all concentrations of each sample and standard compound. DPPH solutions in methanol at the same concentration without test drugs were used as the control. Each concentration of the sample and standard has a different blank. To minimize evaporation, the plate was covered with the lid and wrapped in aluminium foil and kept in the dark place in order to protect the DPPH radical from degradation by light and left for 30 min. After 30 min of incubation, the plate was kept in ELISA reader to measure the absorbance values at 517 nm. The experiment was performed in triplicate. The antioxidant activity of each sample was then calculated as per cent inhibition of DPPH according to the following equation: %decolourationofDPPH=ControlAbs-SampleAbs×100/ControlAbs

B. subtilis = assay: Antimicrobial serial tube dilution, MIC and MBC; type: cell-based, Bacillus subtilis MTCC 2063; conditions: Bacillus subtilis; for MIC: 24 h, read-out: B. subtilis MIC; for MBC: read-out: B. subtilis MBC
Description: as §1

A. fumigatus = assay: Antimicrobial serial tube dilution, MIC and MFC; type: cell-based, Aspergillus fumigatus MTCC 2584
Description: as §1

C. albicans = assay: Antimicrobial serial tube dilution, MIC and MFC; type: cell-based, Candida albicans MTCC 227
Description: as §1

S. aureus = assay: Antimicrobial serial tube dilution, MIC and MBC; type: cell-based, Staphylococcus aureus MTCC 2901; conditions: Staphylococcus aureus; for MIC: 24 h, read-out: S. aureus MIC; for MBC: read-out: S. aureus MBC
Description: as §1

E. coli = assay: Antimicrobial serial tube dilution, MIC and MBC; type: cell-based, Escherichia coli MTCC 1652; conditions: for MIC / MBC: Escherichia coli; for MIC: 24 h, read-out: E. coli MIC, 24 h at 37 ± 2 °C; for MBC: read-out: E. coli MBC
Description: as §1

B. cereus = assay: Antimicrobial serial tube dilution, MIC and MBC; type: cell-based, Bacillus cereus MTCC 1305; conditions: Bacillus cereus; for MIC: 24 h, read-out: B. cereus MIC; for MBC: read-out: B. cereus MBC
Description: as §1

[3] = test system: HEK human embryonic kidney cells; assay: MTT cytotoxicity assay, HEK; type: cell-based; conditions: 48 h
Description: as §2, §3

fungal strains = assay: Antimicrobial serial tube dilution, ranges over fungal strains; type: cell-based; conditions: read-out: IC50 against fungal strains
Description: as §1

[4] = test system: HEK human embryonic kidney cells; set-up: method as in PMID 27302903; conditions: cited from earlier work
[5] = Aspergillus fumigatus, 168 h, read-out: A. fumigatus MIC
[6] = Aspergillus fumigatus, read-out: A. fumigatus MFC
[7] = Candida albicans, 48 h, read-out: C. albicans MIC
[8] = Candida albicans, read-out: C. albicans MFC
[9] = B. cereus, S. typhi and S. aureus

SMILES	MIC (S. typhi)	MBC (S. typhi)	IC50 [1]	IC50 DPPH [2]	% inhibition of DPPH ([2]; 1.56 µg ml^−1)	% inhibition of DPPH ([2]; 3.12 µg ml^−1)	% inhibition of DPPH ([2]; 6.25 µg ml^−1)	% inhibition of DPPH ([2]; 12.5 µg ml^−1)	% inhibition of DPPH ([2]; 25 µg ml^−1)	% inhibition of DPPH ([2]; 50 µg ml^−1)	% inhibition of DPPH ([2]; 100 µg ml^−1)	MIC (B. subtilis)	MBC (B. subtilis)	MIC (A. fumigatus; [5])	MFC (A. fumigatus; [6])	MIC (C. albicans; [7])	MFC (C. albicans; [8])	MIC (S. aureus)	MBC (S. aureus)	melting point	other results
O=C(/C=C\c1cc(Br)ccc1O)c1ccc(N=Nc2ccc([N+](=O)[O-])cc2Cl)c(O)c1 [Compound C-22, (2Z)-3-(5-Bromo-2-hydroxyphenyl)-1-(4-((2-chloro-4-nitrophenyl)diazenyl)-3-hydroxyphenyl) prop-2-en-1-one]	3.9 µg/mL (≈ 7.76 µM)	7.81 µg/mL (≈ 15.5 µM)	156.4 ± 1.23 µg/mL (≈ 311 µM)	> 100 µg/mL	8.25%	9.26%	10.25%	11.79%	14.15%	16.34%	23.27%	1.95 µg/mL (≈ 3.88 µM)	7.81 µg/mL (≈ 15.5 µM)	62.5 µg/mL (≈ 124 µM)	125 µg/mL (≈ 249 µM)	31.2 µg/mL (≈ 62.2 µM)	31.2 µg/mL (≈ 62.2 µM)	3.9 µg/mL (≈ 7.76 µM)	31.2 µg/mL (≈ 62.2 µM)	160 to 162 °C	MBC range (tested bacterial strains; over tested bacterial strains): 3.90 to 7.81 µg/mL; MIC range (tested bacterial strains; over tested bacterial strains): 1.95 to 3.90 µg/mL; MIC (E. coli): 1.95 µg/mL (≈ 3.88 µM); MBC (E. coli): 7.81 µg/mL (≈ 15.5 µM); MIC (B. cereus): 3.9 µg/mL (≈ 7.76 µM); MBC (B. cereus): 3.9 µg/mL (≈ 7.76 µM); IC50 [3]: 296.4 ± 2.32 µg/mL (≈ 590 µM)
O=C(/C=C\c1ccco1)c1ccc(N=Nc2c(O)cccc2O)cc1 [Compound C-24, (2Z)-1-(4-((2,6-Dihydroxyphenyl)diazenyl)phenyl)-3-(furan-2-yl)prop-2-en-1-one]	7.58 µg/mL (≈ 22.7 µM)	15.6 µg/mL (≈ 46.7 µM)	109 ± 3.21 µg/mL (≈ 326 µM)	15.88 µg/mL (≈ 47.5 µM)	24.16%	26.13%	34.65%	54.71%	77.38%	96.46%	99.17%	31.2 µg/mL (≈ 93.5 µM)	62.5 µg/mL (≈ 187 µM)	125 µg/mL (≈ 374 µM)	125 µg/mL (≈ 374 µM)	62.5 µg/mL (≈ 187 µM)	125 µg/mL (≈ 374 µM)	15.6 µg/mL (≈ 46.7 µM)	15.6 µg/mL (≈ 46.7 µM)	315 to 317 °C	MBC range (tested bacterial strains; [9]): 15.62 to 31.25 µg/mL; MIC range (tested bacterial strains; [9]): 7.81 to 15.62 µg/mL; log IC50 DPPH ([2]; Fig. 1): 1.201; E. coli MIC (E. coli; 24 h at 37 ± 2 °C): 15.62 µg/mL; MIC (E. coli): 7.81 to 15.6 µg/mL (≈ 23.4 to 46.7 µM); MBC (E. coli): 31.2 µg/mL (≈ 93.5 µM); MIC (B. cereus): 15.6 µg/mL (≈ 46.7 µM); MBC (B. cereus): 15.6 µg/mL (≈ 46.7 µM); IC50 [3]: 280.4 ± 1.21 µg/mL (≈ 839 µM)
OC(Cn1cncn1)(Cn1cncn1)c1ccc(F)cc1F [Fluconazole, fluconazole, reference compound]																					IC50 (fungal strains): 7.81 to 15.6 µg/mL (≈ 25.5 to 51 µM); MIC (A. fumigatus; Aspergillus fumigatus, 168 h; 7 d at 25 ± 2 °C; read-out: A. fumigatus MIC): 15.6 µg/mL (≈ 51 µM); MFC (A. fumigatus; Aspergillus fumigatus; read-out: A. fumigatus MFC): 125 µg/mL (≈ 408 µM); MIC (C. albicans; Candida albicans; 48 h at 37 ± 2 °C; read-out: C. albicans MIC): 7.81 µg/mL (≈ 25.5 µM); MFC (C. albicans; Candida albicans; read-out: C. albicans MFC): 31.2 µg/mL (≈ 102 µM)
CC[C@@]1(O)C(=O)OCc2c1cc1n(c2=O)Cc2cc3ccccc3nc2-1 [Std, camptothecin, reference compound]			8.7 µg/mL (≈ 25 µM)																		HEK IC50 [4]: 9.0 [28] µg ml^−1
